Data reported in patent US9428519B2, “Acylated derivative of homoharringtonine, preparation method therefor, and application thereof” (HANGZHOU BENSHENG PHARMACEUTICAL CO., LTD., priority 2011, dated 2016).
Values after ≈ are worked out from the molar mass of the structure shown.

Key:
[1] = test system: RPMI8226 (multiple myeloma); assay: MTT growth inhibition of multiple myeloma cells, 72 h; type: cell-based, human
Method: Multiple myeloma and lymphoma cell lines: RPMI8226 (multiple myeloma), purchased from Fuxiang Bio-tech Co. Ltd., Shanghai, China.
(§1) Obtaining 6000 well-growing leukemia cells and inoculating them into wells of a 96-well cell culture plate. The culture medium is the 1640 cell culture medium containing 10% fetal bovine serum. After adding the homoharringtonine derivatives of different concentrations and mixing uniformly, placing the plate in a carbon dioxide cell incubator (5% CO2) at 37° C. and incubated for 72 hours. Then the viable cell concentration is determined by the MTT method. In this experiment, the cell viability in control group (not treated with any compound) is set as 100%. On such basis, the cell viability (%) after treatment and the 50% inhibiting concentration of the compound for the leukemia cell growth at 72 hours (IC50 value of 72 hours) are calculated.

[2] = test system: A549 (human lung cancer); assay: MTT growth inhibition of human solid tumor cells, 72 h; type: cell-based
Method: (§2) Human solid tumor cell lines: Hep-2 (laryngeal carcinoma), A549 (human lung cancer), CaES-17 (esophageal cancer cell), PC-3 (prostate cancer), CNE (nasopharyngeal carcinoma cell), and SK-OV-3 (ovarian cancer cell), all of which are purchased from China Center For Type Culture Collection; RKO (human colon adenocarcinoma cell), MGC 803 (human gastric cancer cell), MG63 (osteosarcoma) and U87 MG (malignant glioma cell), all of which are purchased from Fuxiang Bio-tech Co. Ltd., Shanghai, China; PANC-1 (pancreatic cancer), Huh7 (human liver cancer cell), Becap37 (human breast cancer cell), and Hela (human cervical cancer cell), all of which are donated by Cancer Research Institute of Zhejiang University, China.
(§3) Obtaining 4000 well-growing human solid tumor cells and inoculating them into wells of a 96-well cell culture plate. The culture medium is DMEM High Glucose cell culture medium containing 10% fetal bovine serum. The plate is placed in a carbon dioxide cell incubator (5% CO2) at 37° C. and incubated for 24 hours. After adding the homoharringtonine derivatives of different concentration and mixing uniformly, the plate is placed in a carbon dioxide cell incubator (5% CO2) at 37° C. and incubated for 72 hours. Then the viable cell concentration is determined by the MTT method and the cell viability (%) after drug treatment is calculated. In this experiment, the cell viability of control group (not treated with any compound) is set as 100%.

[3] = test system: Becap37 (human breast cancer cell); assay: as above; type: cell-based
Method: as §2, §3

[4] = test system: RKO (human colon adenocarcinoma cell); assay: as above; type: cell-based; conditions: MTT
Method: as §2, §3

[5] = test system: MGC 803 (human gastric cancer cell); assay: as above; type: cell-based
Method: as §2, §3

[6] = test system: PANC-1 (pancreatic cancer); assay: as above; type: cell-based
Method: as §2, §3

[7] = test system: CaES-17 (esophageal cancer cell); assay: as above; type: cell-based
Method: as §2, §3

[8] = test system: CNE (nasopharyngeal carcinoma cell); assay: as above; type: cell-based
Method: as §2, §3

[9] = test system: PC-3 (prostate cancer); assay: as above; type: cell-based
Method: as §2, §3

[10] = test system: Huh7 (human liver cancer cell); assay: as above; type: cell-based
Method: as §2, §3

[11] = test system: Hep-2 (laryngeal carcinoma); assay: as above; type: cell-based
Method: as §2, §3

[12] = test system: SK-OV-3 (ovarian cancer cell); assay: as above; type: cell-based
Method: as §2, §3

[13] = test system: MG63 (osteosarcoma); assay: as above; type: cell-based
Method: as §2, §3

[14] = test system: Hela (human cervical cancer cell); assay: as above; type: cell-based
Method: as §2, §3

[15] = test system: U87 MG (malignant glioma cell); assay: as above; type: cell-based
Method: as §2, §3

[16] = test system: H9 (acute lymphoblastic leukemia, ALL); assay: MTT growth inhibition of leukemia cells, 72 h; type: cell-based, human
Excerpt: (§4) Leukemia cell lines: leukemia cell lines: K562/adr (drug-resistant, chronic myeloid leukemia, CML), NB4 (acute promyelocytic leukemia, AML), Kasumi-1 (acute myeloid leukemia M2 type, AML-M2), Jurkat (acute lymphoblastic leukemia, ALL), all of which are donated by Cancer Research Institute of Zhejiang University, China; and H9 (acute lymphoblastic leukemia, ALL), which is purchased from China Center for Type Culture Collection (CCTCC).
(§5) Reagents: The standard sample of homoharringtonine (HHT) is purchased from Taihua Natural Plant Pharmaceutical Co., Ltd., Shaanxi, China, the homoharringtonine derivatives of the present invention.
as §1

[17] = test system: NB4 (acute promyelocytic leukemia, AML); assay: MTT growth inhibition of leukemia cells, 72 h; type: cell-based, human
Excerpt: as §4, §5, §1

[18] = test system: Kasumi-1 (acute myeloid leukemia M2 type, AML-M2); assay: MTT growth inhibition of leukemia cells, 72 h; type: cell-based, human
Excerpt: as §4, §5, §1

[19] = test system: K562/adr (drug-resistant, chronic myeloid leukemia, CML); assay: MTT growth inhibition of leukemia cells, 72 h; type: cell-based, human
Excerpt: as §4, §5, §1

[20] = test system: Jurkat (acute lymphoblastic leukemia, ALL); assay: MTT growth inhibition of leukemia cells, 72 h; type: cell-based, human
Excerpt: as §4, §5, §1

## COC(=O)C[C@](O)(CCCC(C)(C)OC(=O)Cc1ccccc1)C(=O)O[C@@H]1C(OC)=C[C@]23CCCN2CCc2cc4c(cc2[C@H]13)OCO4 [BS-HH-074]
[1]; Homo sapiens, RPMI-8226, MTT
  IC50: 0.003 µg/mL (≈ 0.00452 µM)
  IC90: 0.015 µg/mL (≈ 0.0226 µM)
[2]; Homo sapiens, A549
  IC50: 0.007 µg/mL (≈ 0.0105 µM)
  IC90: > 16 µg/mL
[3]; Homo sapiens
  IC50: 0.003 µg/mL (≈ 0.00452 µM)
  IC90: 8.38 µg/mL (≈ 12.6 µM)
[4]; Homo sapiens
  IC50: 0.002 µg/mL (≈ 0.00301 µM)
  IC90: 0.006 µg/mL (≈ 0.00904 µM)
[5]; Homo sapiens, MGC-803
  IC50: 0.006 µg/mL (≈ 0.00904 µM)
  IC90: 0.055 µg/mL (≈ 0.0829 µM)
[6]; Homo sapiens, PANC-1, MTT
  IC50: 0.014 µg/mL (≈ 0.0211 µM)
  IC90: > 16 µg/mL
[7]; Homo sapiens, CaEs17
  IC50: 0.015 µg/mL (≈ 0.0226 µM)
  IC90: 16 µg/mL (≈ 24.1 µM)
[8]; Homo sapiens, MTT
  IC50: 0.0014 µg/mL (≈ 0.00211 µM)
  IC90: > 16 µg/mL
[8]; vs HHT
  anti-CNE effect relative to homoharringtonine: > 27 fold
[9]; Homo sapiens, MTT
  IC50: 0.0077 µg/mL (≈ 0.0116 µM)
  IC90: > 16 µg/mL
[9]; vs HHT
  anti-PC-3 effect relative to homoharringtonine: more than 10 fold
[10]; Homo sapiens, Huh-7
  IC50: 0.003 µg/mL (≈ 0.00452 µM)
  IC90: 0.05 µg/mL (≈ 0.0753 µM)
[11]; Homo sapiens, HEp-2
  IC50: 0.006 µg/mL (≈ 0.00904 µM)
  IC90: > 16 µg/mL
[12]; Homo sapiens, SK-OV-3, MTT
  IC50: 0.027 µg/mL (≈ 0.0407 µM)
  IC90: > 16 µg/mL
[13]; Homo sapiens, MG-63, MTT
  IC50: 0.006 µg/mL (≈ 0.00904 µM)
  IC90: 1.18 µg/mL (≈ 1.78 µM)
[13]; vs HHT
  anti-MG63 effect relative to homoharringtonine: substantially superior
[14]; Homo sapiens, HeLa, MTT
  IC50: 0.0034 µg/mL (≈ 0.00512 µM)
  IC90: 12.6 µg/mL (≈ 19 µM)
[14]; vs HHT
  anti-Hela effect relative to homoharringtonine: > 5.6 fold
[15]; Homo sapiens, U-87 MG
  IC50: 0.012 µg/mL (≈ 0.0181 µM)
  IC90: 0.08 µg/mL (≈ 0.121 µM)
[16]; Homo sapiens, MTT
  IC50: 0.004 µg/mL (≈ 0.00603 µM)
  IC90: 0.01 µg/mL (≈ 0.0151 µM)
[16]; vs HHT
  improvement of anti-H9 activity compared with homoharringtonine: more than 2 fold
[17]; Homo sapiens, MTT
  IC50: 0.003 µg/mL (≈ 0.00452 µM)
  IC90: 0.007 µg/mL (≈ 0.0105 µM)
[17]; vs HHT
  improvement of anti-NB4 activity compared with homoharringtonine: more than 2 fold
[18]; Homo sapiens, Kasumi 1, MTT
  IC50: 0.001 µg/mL (≈ 0.00151 µM)
  IC90: 0.005 µg/mL (≈ 0.00753 µM)
[18]; vs HHT
  improvement of anti-Kasumi-1 activity compared with homoharringtonine: more than 5 fold
[19]; Homo sapiens, K562/Adr, MTT
  IC50: 0.007 µg/mL (≈ 0.0105 µM)
  IC90: 14.1 µg/mL (≈ 21.2 µM)
[19]; vs HHT
  improvement of anti-K562/adr activity compared with homoharringtonine: more than 5 fold
[20]; Homo sapiens, Jurkat
  IC50: 0.0038 µg/mL (≈ 0.00572 µM)
  IC90: ≥ 16 µg/mL

## COC(=O)C[C@](O)(CCCC(C)(C)OC(=O)C1CCCCC1)C(=O)O[C@@H]1C(OC)=C[C@]23CCCN2CCc2cc4c(cc2[C@H]13)OCO4 [BS-HH-076]
[1]; MTT
  IC50 RPMI8226: 0.007 µg/mL (≈ 0.0107 µM)
  IC90 RPMI8226: 0.034 µg/mL (≈ 0.0518 µM)
[2]
  IC50 A549: 0.03 µg/mL (≈ 0.0457 µM)
  IC90 A549: >16 µg/mL
[3]
  IC50 Becap37: 0.01 µg/mL (≈ 0.0152 µM)
  IC90 Becap37: 6.4 µg/mL (≈ 9.76 µM)
[4]
  IC50 RKO: 0.008 µg/mL (≈ 0.0122 µM)
  IC90 RKO: 0.02 µg/mL (≈ 0.0305 µM)
[5]
  IC50 MGC 803: 0.025 µg/mL (≈ 0.0381 µM)
  IC90 MGC 803: 0.098 µg/mL (≈ 0.149 µM)
[6]; MTT
  IC50 PANC-1: 0.042 µg/mL (≈ 0.064 µM)
  IC90 PANC-1: >16 µg/mL
[7]
  IC50 CaES-17: 0.039 µg/mL (≈ 0.0595 µM)
  IC90 CaES-17: 16 µg/mL (≈ 24.4 µM)
[8]; MTT
  IC50 CNE: 0.029 µg/mL (≈ 0.0442 µM)
  IC90 CNE: >16 µg/mL
[9]; MTT
  IC50 PC-3: 0.03 µg/mL (≈ 0.0457 µM)
  IC90 PC-3: >16 µg/mL
[10]
  IC50 Huh7: 0.008 µg/mL (≈ 0.0122 µM)
  IC90 Huh7: 0.096 µg/mL (≈ 0.146 µM)
[11]
  IC50 Hep-2: 0.012 µg/mL (≈ 0.0183 µM)
  IC90 Hep-2: >16 µg/mL
[12]; MTT
  IC50 SK-OV-3: 0.031 µg/mL (≈ 0.0473 µM)
  IC90 SK-OV-3: >16 µg/mL
[13]; MTT
  IC50 MG 63: 0.022 µg/mL (≈ 0.0335 µM)
  IC90 MG 63: 1.72 µg/mL (≈ 2.62 µM)
[14]; MTT
  IC50 Hela: 0.011 µg/mL (≈ 0.0168 µM)
  IC90 Hela: 10.25 µg/mL (≈ 15.6 µM)
[15]
  IC50 U87 MG: 0.009 µg/mL (≈ 0.0137 µM)
  IC90 U87 MG: 0.067 µg/mL (≈ 0.102 µM)
[16]; MTT
  IC50 H9: 0.01 µg/mL (≈ 0.0152 µM)
  IC90 H9: 0.04 µg/mL (≈ 0.061 µM)
[17]; MTT
  IC50 NB4: 0.009 µg/mL (≈ 0.0137 µM)
  IC90 NB4: 0.022 µg/mL (≈ 0.0335 µM)
[18]; MTT
  IC50 Kasumi-1: 0.006 µg/mL (≈ 0.00915 µM)
  IC90 Kasumi-1: 0.023 µg/mL (≈ 0.0351 µM)
[19]; MTT
  IC50 K562/adr: 0.02 µg/mL (≈ 0.0305 µM)
  IC90 K562/adr: 0.21 µg/mL (≈ 0.32 µM)
[20]
  IC50 Jurkat: 0.006 µg/mL (≈ 0.00915 µM)
  IC90 Jurkat: 6.24 µg/mL (≈ 9.52 µM)
